The values that follow come from article PMC10251479, “PROTAC-Induced Glycogen Synthase Kinase 3β Degradation as a Potential Therapeutic Strategy for Alzheimer’s Disease” (ACS Chemical Neuroscience, 2023).

Series [1] in a line: PAMPA-BBB permeation. Format: in vitro ADME. As to conditions: for Papp at 2.75 h: PAMPA, pH 7.4, PBS:EtOH (70:30), 2 h 45 min at 25 °C, porcine brain lipid, mean ± SD of two independent experiments, read-out: Pe (experimental data). The procedure: 11. PAMPA BBB permeation studies.
Prediction of the brain penetration was evaluated using a parallel artificial membrane permeability assay (PAMPA).[12] Ten commercial drugs, PBS at pH 7.4, EtOH, and dodecane were purchased from Sigma- Aldrich, Acros organics, Merck, and Fluka. The porcine polar brain lipid (PBL) was from Avanti Polar Lipids. The donor plate was a 96-well filtrate plate (Multiscreen® IP Sterile Plate PDVF […]
both from Millipore. Filter PDVF membrane units (diameter 30 mm, pore size 0.45 µm) from Symta were used to filter the samples. A 96-well plate UV reader (Biteck Instruments, Synergy H4 Hibrid Reader) was used for the UV measurements.
12 mg of promazine) were dissolved in 1 mL of EtOH. 100 µL of this compound stock solution were taken and 1400 µL of EtOH and 3500 µL of PBS were added to reach 30% of EtOH concentration in the experiment. These solutions were filtered. The acceptor 96-well microplate was filled with 180 µL of PBS/EtOH (70/30). The donor 96-well plate was coated with 4 µL of porcine brain lipid in dodecane (20 mg mL-1) and after 5 min, 180 µL of each compound solution was added. 1 mg of […]
of EtOH and 1.4 mL of PBS, filtered and then added to the donor 96-well plate. Then the donor plate was carefully put on the acceptor plate to form a “sandwich”, which was left undisturbed for 2 h and 45 min at 25 °C. During this time the compounds diffused from the donor plate through the brain lipid membrane into the acceptor plate. After incubation, the donor plate was removed. UV plate reader determined the concentration of compounds and commercial drugs in the acceptor and the donor plates. Every sample was analyzed at three to five wavelengths (between 200 and 500 nm), in 3 wells and in two independent runs. Results are given as the mean and the average of the two runs is reported. Quality control compounds (previously mentioned) of known BBB permeability were included in each experiment to validate the analysis set.

The target of series [2] is T1, GSK-3β protein (Homo sapiens, UniProt P49841). The experiment in a line: GSK-3β degradation by Western blotting in SH-SY5Y cells. On the set-up: endogenous in cells; host or cells: SH-SY5Y. Format: cell-based. The conditions noted are these: 10 μM, 48 h, Western blotting. The procedure:
Determination of GSK-3β degradation by Western Blotting
At the end of incubation, cells were trypsinized and the cellular pellet was resuspended in complete lysis buffer containing leupeptin (2 µg/mL, Sigma-Aldrich), phenylmethylsulfonyl fluoride (PMSF, 100 µg/mL, Sigma-Aldrich) and a cocktail of protease/phosphatase inhibitors (100×). The protein concentration was determined using the Bradford method (Bio-Rad Laboratories Srl, Hercules, CA, USA). The protein lysates (50 µg per […]
polyacrylamide gels, Bio-Rad Laboratories SrL) and electroblotted onto 0.45 µm nitrocellulose membranes. Membranes were incubated overnight at 4 °C with primary antibody recognizing GSK-3β (1:1000, Cell Signaling Technologies Inc, Danvers, MA, USA). Membranes were then washed with TRIS-buffered saline-T (TBS + 0.05% Tween20), and then incubated with horseradish peroxidase (POD) linked anti-rabbit secondary antibody (1:2000, GE Healthcare, Chicago, IL, USA).
Immunoreactive bands were visualized by enhanced chemiluminescence (ECL, Bio-Rad Laboratories Srl). The same membranes were stripped and reprobed with anti β-actin (1:1000, Sigma-Aldrich). Data were normalized on the β-actin bands and analyzed by densitometry, using the Quantity One software (Bio-Rad Laboratories Srl).[9] […]

For series [3], the system named is SH-SY5Y cells. The series can be described thus: Cytotoxicity in SH-SY5Y cells (MTT). It is filed as cell-based, human. As to conditions: MTT, 24 h treatment, 1.25–40 μM. The procedure:
Human neuronal SH-SY5Y cells (Sigma-Aldrich, St. Louis, MO, USA) were routinely grown in Dulbecco’s modified Eagle’s Medium supplemented with 10% fetal bovine serum, 2 mM l-glutamine, 50 U/mL penicillin, and 50 μg/mL streptomycin at 37 °C in a humidified incubator with […]
Determination of cytotoxicity
(§1) SH-SY5Y cells were seeded in a 96-well plate at 2 × 10^4 cells/well, incubated for 24 h and then […]
for 24 h at 37°C in 5% CO2. The cell viability, in terms of mitochondrial metabolic function, was evaluated by the reduction of 3-(4,5-dimethyl-2-thiazolyl)-2,5-diphenyl-2H-tetrazolium bromide […]
(MTT) to its insoluble formazan. Briefly, the treatment was replaced with MTT in HBSS [0.5 mg/mL] for 2 h at 37°C in 5% CO2. After washing with HBSS, formazan crystals were dissolved in isopropanol. The amount of formazan was measured (570 nm, reference filter 690 nm) using a multilabel plate reader (VICTOR™ X3, PerkinElmer, Waltham, MA, USA). Data are expressed as mean of three independent experiments. […]

Series [4] addresses T1, GSK-3β protein. The series can be described thus: GSK-3β inhibition in vitro assay (Kinase-Glo luminescent). It is filed as biochemical. More on the design: purchased Millipore (Millipore Iberica S.A.U.). As to conditions: ATP 1 μM, GSM substrate 25 μM, 30 min at 37 °C; mean of at least two determinations in duplicate; read-out: IC50 ± SEM, GSK-3β activity. The source says:
N-(2-(2-(2-((2-(2,6-dioxopiperidin-3-yl)-1,3-dioxoisoindolin-4-yl)amino)ethoxy)ethoxy)ethyl)- 4-((2-(naphthalen-1-yl)-3,5-dioxo-1,2,4-thiadiazolidin-4-yl)methyl)benzamide (4). Synthesized […]
GSK-3β inhibition in vitro assay. Human recombinant GSK-3β, prephosphorylated polypeptide substrate and white 96-well plates were purchased from Millipore (Millipore Iberica S.A.U.). Kinase-Glo Luminescent Kinase Assay was obtained from Promega (Promega Biotech Iberica, SL).
Adenosinetriphosphate (ATP) and all other reagents were from Sigma-Aldrich. Assay buffer contained 50 mM 4-(2-hydroxyethyl)-1- piperazineethanesulfonic acid (HEPES) (pH 7.5), 1 mM ethylenediaminetetraacetic acid (EDTA), 1 mM ethylene glycol tetraacetic acid (EGTA), and 15 mM magnesium acetate. The in solution experiments for GSK-3β inhibition analysis were performed by following the method developed by Baki et al.[1] In a typical assay, 10 μL of test compound (dissolved […]
in DMSO at 1 mM concentration and diluted in advance in assay buffer to the desired concentration) and 10 μL (20 ng) of enzyme were added to each well in presence of 20 μL of assay buffer containing […]
After a 30 min incubation time at 37 °C, the enzymatic reaction was stopped by adding 40 μL of Kinase-Glo reagent. Glow-type luminescence was recorded after 10 min using a Victorx3 (PerkinElmer Waltham, MA, USA) plate […]
inhibitory activities were calculated based on maximal kinase (average positive) and luciferase activities (average negative) measured in the absence of inhibitor and in the presence of reference […]
μM), respectively. The linear regression parameters were determined and the IC 50 extrapolated by GraphPad software (version 5.0; GraphPad Software, La Jolla, CA, USA).

For series [5] the following is noted: commercial drugs of the validation study; ref [12]; cited from earlier work.
Series [6] deals with SH-SY5Y cells. The experiment in a line: Neuroprotective effects against CuSO4 in SH-SY5Y cells (MTT). It is filed as cell-based, human. As to conditions: 1 μM, 24 h, CuSO4 150 μM, MTT. As for the experimental part:
as §1
presence of CuSO4 (150 µM) at 37 °C in 5 % CO2. Cells were also treated with compound 1 (1 µM) for 24 h in the presence of lactacystin (5 µM). At the end of the treatment, the cell viability, in terms of mitochondrial metabolic function, was evaluated by the reduction of 3-(4,5-dimethyl-2-thiazolyl)- 2,5-diphenyl-2H-tetrazolium bromide (MTT) to its insoluble formazan. Briefly, the treatment was replaced with MTT in HBSS [0.5 mg/mL] for 2 h at 37°C in 5% CO2. After washing with HBSS, formazan crystals were dissolved in isopropanol. The amount of formazan was measured (570 nm, reference filter 690 nm) using a multilabel plate reader (VICTOR™ X3, PerkinElmer, Waltham, MA, USA).[10] Data are reported as mean ± SEM of three independent experiments. The neurotoxicity was expressed as a percentage of control cells and calculated by the formula: 100 – ((absorbance of treated

The mark [7] stands for this setting: classified from experimental Pe.

“And” between values parts separate entries of the source, which are not always exact repeats. Identical values can stand only once.

T1 sequence (P49841 whole entry): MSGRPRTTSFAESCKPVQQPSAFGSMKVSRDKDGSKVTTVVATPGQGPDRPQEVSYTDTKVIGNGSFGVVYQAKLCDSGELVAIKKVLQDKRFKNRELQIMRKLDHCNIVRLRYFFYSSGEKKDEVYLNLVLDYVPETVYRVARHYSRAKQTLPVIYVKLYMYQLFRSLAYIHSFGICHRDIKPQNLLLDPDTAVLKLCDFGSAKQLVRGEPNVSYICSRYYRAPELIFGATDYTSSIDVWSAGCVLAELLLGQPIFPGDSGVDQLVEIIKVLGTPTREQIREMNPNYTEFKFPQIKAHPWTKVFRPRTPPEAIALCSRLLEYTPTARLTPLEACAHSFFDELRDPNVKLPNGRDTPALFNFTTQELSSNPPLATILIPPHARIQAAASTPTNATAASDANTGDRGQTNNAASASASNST

For the compound `Cn1c(=O)c2c(ncn2C)n(C)c1=O` [Caffeine, reference compound], the Papp at 2.75 h in series [1] worked out at 7.29 ± 0.57 ×10⁻⁶ cm/s.

For `O=C1CCC(N2C(=O)c3cccc(NCCCOCCCCOCCCNC(=O)c4ccc(Cn5c(=O)sn(-c6cccc7ccccc67)c5=O)cc4)c3C2=O)C(=O)N1` (stereo not drawn) [Compound 2], the “total GSK-3β protein level” value in series [2] is “did not induce GSK-3β degradation”. Moreover, the “concentration at which cytotoxicity was shown” value (“concentration” for short) in series [3] is at least 20 µM. Further, in series [4], the IC50 is 79.3 nM and 79 nM.

Consider `O=C(Cn1cc(C2=C(c3ccc(Cl)cc3Cl)C(=O)NC2=O)c2ccccc21)NCCOCCOCCNc1cccc2c1C(=O)N(C1CCC(=O)NC1=O)C2=O` (stereo not drawn) [Compound 3], for which the “total GSK-3β protein level” value in series [2] was “significantly decreased the total level of GSK-3β protein”. For the same compound, the Papp at 2.75 h in series [1] was 20.7 ± 3.93 ×10⁻⁶ cm/s. Further, in series [1] (setting [7]), the “BBB permeability classification” value was “predicted to cross the BBB” and the “Prediction (penetration in the CNS)” value was “CNS + (CNS + (green) for P e > 15.78 × 10−6 cm s−1)”. For the same compound, the “concentration” value in series [3] is given as “higher than 20 μM”. Besides, in series [4], the IC50 was determined as 457 ± 99 nM.

`O=C1CCC(N2C(=O)c3cccc(NCCOCCOCCNC(=O)c4ccc(Cn5c(=O)sn(-c6cccc7ccccc67)c5=O)cc4)c3C2=O)C(=O)N1` (stereo not drawn) [Compound 4, N-(2-(2-(2-((2-(2,6-dioxopiperidin-3-yl)-1,3-dioxoisoindolin-4-yl)amino)ethoxy)ethoxy)ethyl)-4-((2-(naphthalen-1-yl)-3,5-dioxo-1,2,4-thiadiazolidin-4-yl)methyl)benzamide]: the “total GSK-3β protein level” value in series [2] is reported as “did not induce GSK-3β degradation”. The “concentration” value in series [3] was “higher than 20 μM”. In addition, in series [4], the IC50 stood at 178 nM.

Turning to `CNCCCN1c2ccccc2CCc2ccccc21` [Desipramine, reference compound], in series [1], the Papp at 2.75 h was 36.5 ± 5.35 ×10⁻⁶ cm/s.

In the case of `CCn1cc(C(=O)O)c(=O)c2cc(F)c(N3CCNCC3)nc21` [Enoxacin, reference compound], the Papp at 2.75 h in series [1] is 10.3 ± 0.95 ×10⁻⁶ cm/s.

For `CCn1cc(C(=O)O)c(=O)c2cc(F)c(N3CCNCC3)cc21` [Norfloxacin, reference compound], the Papp at 2.75 h in series [1] turned out to be 5.37 ± 0.17 ×10⁻⁶ cm/s.

As for `CN1C(C(=O)Nc2ccccn2)=C(O)c2ccccc2S1(=O)=O` [Piroxicam, reference compound], the Papp at 2.75 h in series [1] came out at 12.8 ± 0.63 ×10⁻⁶ cm/s. Further, the “Pe (literature data)” value in series [5] is 2.5 10-6 cm s-1.

On to `CN(C)CCCN1c2ccccc2Sc2ccccc21` [Promazine, reference compound], for which the Papp at 2.75 h in series [1] stood at 24.2 ± 0.89 ×10⁻⁶ cm/s. Moreover, in series [5], the “Pe (literature data)” value was 8.8 10-6 cm s-1.

With `Cn1cc(C2=C(c3ccc(Cl)cc3Cl)C(=O)NC2=O)c2ccccc21` [SB-216763, reference compound], the “total GSK-3β protein level” value in series [2] was “did not modify the basal level of GSK-3β protein”. Besides, in series [6], the “neurotoxicity induced by CuSO4” value is listed as “significantly counteracted the neurotoxicity induced by CuSO4”. Further, the “concentration” value in series [3] is reported as “higher than 20 μM”.

Turning to `O=c1sn(-c2cccc3ccccc23)c(=O)n1Cc1ccccc1` [tideglusib, reference compound], in series [6], the “neurotoxicity induced by CuSO4” value is reported as “significantly counteracted the neurotoxicity induced by CuSO4”.
